In brackets after ≈: the same amount, converted by molar mass. Where two headings read alike, the source gives them in different places.
Key:
[1] = tested on: fibroblast to myofibroblast transdifferentiation (primary human lung fibroblasts and primary rodent HSCs); test: High content imaging and western based assay of fibroblast to myofibroblast transdifferentiation (α-SMA); assay type: cell-based; conditions: graded, TGF-β induced fibroblast to myofibroblast transdifferentiation
From the text: A high content imaging assay, based on α-SMA staining and cell morphological changes associated with fibroblast to myofibroblast transdifferentiation, was established using primary human lung fibroblasts and primary rodent HSCs. Conditions, involving serum starvation and subsequent TGF-β treatment, were identified that facilitate robust in vitro transdifferentiation in a miniaturized (384 well plate) format that is amenable to high throughput small molecule screening. A selective ALK-5 TGF-β1 receptor inhibitor (SB-431542) was used as a positive control. […] This assay was used to identify a hit compound (itraconazole) and was used to evaluate focused panels of itraconazole analogues generated from medicinal chemistry efforts.
The activity of Itraconazole and its analogues was confirmed by analyzing changes in gene expression of multiple genes associated with fibroblast to myofibroblast transdifferentiation using biochemical methods (i.e., Western blot and RT-PCR). These 4-day assays were used to evaluate sets of 6 compounds at a time in 4-point dose response fashion.
After 24 hour incubation, cells were treated with the indicated doses of itraconazole for 48 hours in the presence of 10 ng/mL of TGF-β1 in hepatic stellate medium. Following fixation and staining with an anti smooth muscle actin antibody, cell morphology was analyzed with a Cellomics cell insight imaging reader (FIG. 1 for representative images). Cells were analyzed for mean cellular area of a-SMA staining (FIG. 5a) or mean fluorescence intensity of SMA staining (FIG. 5b).
After 24 incubation, medium was changed to assay medium containing TGF-β1 (10 ng/mL) and simultaneously treated with itraconazole (10 μM), SB431542 (10 μM) or vehicle control (FIG. 6).

Cyp3A4 = Cyp3A4 (Homo sapiens, UniProt P08684); test: Cyp reversible inhibition assay (human liver microsomes)
Description: The purpose of this assay was to determine reversible inhibition of Cyp enzyme with a given compound using a substrate probe turnover as the surrogate for inhibition. This was done with human liver microsomes rather an isolated enzyme to account for metabolites of parent drug leading to a potential drug-drug interaction through Cyp inhibition. The substrate turnover (for example conversion of midazolam to hydroxyl midazolam) was monitored by LCMSMS (Q1/Q2=342.2/203.2). Test compounds were tested in a 7-point dose response curve starting from 50 μM to 50 nM (˜3-fold dilution series).
The detailed protocol was as follows: • Prepared test compounds and standard inhibitors working solution (100×) • Pulled microsomes out of the −80° C. freezer to thaw on ice, labeled with the date and put back to freezer immediately after using. • Added 20 μL of the substrate solutions to corresponding wells. • Added 20 μL PB to Blank wells. • Added 2 μL of the test compounds and positive control working solution to corresponding wells. • Added 2 μL MeOH to No Inhibitor wells and Blank wells. • Prepared HLM working solution. • Added 158 μL of the HLM working solution to all wells of incubation plate. • Pre-warmed the plate for about 10 min at 37° C. water bath. • Prepared NADPH cofactor solution. • Added 20 μL NADPH cofactor to all incubation wells. • Mixed and incubated for 10 minutes at 37° C. water bath. • At the time point, terminated the reaction by adding 400 μL cold stop solution (200 ng/mL Tolbutamide in ACN). • Centrifuged the samples at 4000 rpm for 20 minutes to precipitate protein. • Transferred 200 μL supernatant to 200 μL HPLC water and shook for 10 min. • Analyzed samples by LC/MS/MS.

[2] = tested on: Candida albicans (ATCC 10231); test: Candida albicans anti-fungal MIC potency determination; assay type: cell-based
Description: The wild type Candida albicans (ATCC 10231) was used and Fluconazole, amphotericin B, itraconazole and terbinafine were purchased from Sigma and used as positive controls.
The highest assay concentration for all test compounds and fluconazole was 100 μM. Fluconazole was also tested at the highest concentration of 64 μg/ml, and amphotercin B and terbinafine at 16 and 64 μg/ml. The test compounds were in DMSO stock solution at a concentration of 10 mM. Two stock solutions in DMSO were prepared for fluconazole at 10 mM and 6.4 mg/ml. Amphotericin B and terbinafine stock solutions in DMSO were prepared at 1.6 and 6.4 mg/ml.
Serial dilution of 100× stock solutions: 4 μl of stock solution was added into 196 μl of RPMI1640 (MOPS buffered and free of HEPES and sodium bicarbonate) in the first well of a row of a sterile u-bottom 96-well plate. The rest of the wells was filled with 100 μl RPMI1640. The 2-fold serial dilution was made sequentially by transferring 100 μl solution to the next well and mixing by pipetting, until 11th well. The extra 100 μl in 11th well was discarded. Therefore, the compound wells contained 100 μl of 2× of testing concentrations of drugs in RPMI1640. The 12th well was filled with only 100 μl RPMI1640.
C. albicans 3147 (ATCC 10231) glycerol frozen stock was streaked on Sabouraud dextrose agar (SDA). The plate was incubated at 35° C. ambient atmosphere for 20 h. Single colonies were suspended into sterile saline until turbidity reached 0.1 (1-5×10^6 CFU/ml) using a Siemens turbidity meter. This suspension was diluted 50× in RPMI1640 in a 15 ml conical, and then it was further diluted 20× in RPMI1640 in a 50 ml conical. This gave 1-5×10^3 CFU/ml suspension and was used as inoculum. The cell density in inoculum was plate-counted to be 4.94×10^3 CFU/ml.
The plates were incubated at 35° C. in ambient atmosphere. The photos were taken at 24 h and 48 h. The MIC end points for fluconazole and amphotericin B were read according to the M27-A3 protocol (Reference Method for Broth Dilution Antifungal Susceptibility Testing of Yeasts; Approved Standard-Third Edition, M27-A3 standard published Jan. 1, 2008 by Clinical and Laboratory Standards Institute). The MIC for compounds for test cmpds and terbinafine (not mentioned in M27-A3 protcol) were read as if they were azoles.

[3] = Cyp 3A4 testosterone LCMS IC50, human liver microsomes, substrate testosterone
[4] = ATCC10231, 24 h, read-out: C. Albicans MIC90 at 24 h
[5] = ATCC10231, 48 h, read-out: C. Albicans MIC90 at 48 h
[6] = Cyp 3A4 midazolam LCMS IC50, human liver microsomes, substrate midazolam

Cyp3A4, sequence (P08684 whole entry): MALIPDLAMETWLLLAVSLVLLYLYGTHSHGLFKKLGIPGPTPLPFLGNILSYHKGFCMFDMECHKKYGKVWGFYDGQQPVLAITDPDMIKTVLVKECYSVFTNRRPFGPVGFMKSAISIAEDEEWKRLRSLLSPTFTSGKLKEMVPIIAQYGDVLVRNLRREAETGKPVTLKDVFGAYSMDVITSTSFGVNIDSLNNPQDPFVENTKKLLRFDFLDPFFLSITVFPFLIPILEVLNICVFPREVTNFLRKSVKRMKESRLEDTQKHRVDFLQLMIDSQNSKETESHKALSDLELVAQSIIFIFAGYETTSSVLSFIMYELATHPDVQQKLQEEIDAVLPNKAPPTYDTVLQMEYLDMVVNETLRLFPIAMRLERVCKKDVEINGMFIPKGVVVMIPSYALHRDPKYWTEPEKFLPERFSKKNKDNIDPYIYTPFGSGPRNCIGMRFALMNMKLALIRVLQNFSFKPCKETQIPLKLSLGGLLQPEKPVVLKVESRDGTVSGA

Question: Which EC50 [1] does the source give for `CCC(C)n1cnn(-c2ccc(N3CCN(c4ccc(OC[C@@H]5CO[C@@](Cn6cncn6)(c6ccc(F)cc6F)O5)cc4)CC3)cc2)c1=O` (mixture of isomers) [Compound 1] here?
Answer: Its EC50 is 0.5 to 5 µM.

Question: What about the IC50 (Cyp3A4; [3]) of the same molecule?
Answer: The IC50 was 4.5 µM.

Question: With `CCC(C)n1ncn(-c2ccc(N3CCN(c4ccc(OC[C@@H]5CO[C@@](CCn6cncn6)(c6ccc(Cl)cc6Cl)O5)cc4)CC3)cc2)c1=O` (stereo partly shown) [Compound 100] as the molecule, how does the MIC90 [2, 4] read?
Answer: The MIC90 was 0.781 µM (≈ 0.562 µg/mL).

Question: And the MIC90 [2, 5]?
Answer: The MIC90 was 1.56 µM (≈ 1.12 µg/mL).

Question: And the EC50 [1]?
Answer: The EC50 was < 0.5 µM.

Question: What about the IC50 (Cyp3A4; [6]) of the same molecule?
Answer: The IC50 was 0.372 µM.

Question: What about the IC50 (Cyp3A4; [3]) of the same molecule?
Answer: The IC50 was 0.545 µM.

Question: Which results are given for `CCC(C)n1cnn(-c2ccc(N3CCN(c4ccc(OC[C@@H]5CO[C@@](Cn6ccnn6)(c6ccc(F)cc6F)O5)cc4)CC3)cc2)c1=O` (stereo partly shown) [Compound 2]?
Answer: EC50 [1]: 0.5 to 5 µM; IC50 (Cyp3A4; [3]): > 30 µM

Question: How did the MIC90 [2, 4] turn out when `CCC(C)n1ncn(-c2ccc(N3CCN(c4ccc(OC[C@@H]5CO[C@@](Cn6nccn6)(c6ccc(Cl)cc6Cl)O5)c(C#N)c4)CC3)cc2)c1=O` (stereo partly shown) [Compound 79] was run?
Answer: Its MIC90 is > 100 µM.

Question: And the MIC90 [2, 5]?
Answer: Its MIC90 is > 100 µM.

Question: And the EC50 [1]?
Answer: Its EC50 is 0.5 to 5 µM.

Question: What about the IC50 (Cyp3A4; [6]) of the same molecule?
Answer: Its IC50 is > 50 µM.

Question: What about the IC50 (Cyp3A4; [3]) of the same molecule?
Answer: The IC50 was > 50 µM.

Question: For `CCC(C)n1ncn(-c2ccc(N3CCN(c4ccc(OC[C@@H]5CO[C@@](Cn6nccn6)(c6ccccc6C)O5)cc4)CC3)cc2)c1=O` (stereo partly shown) [Compound 41], which MIC90 [2, 4] is on record?
Answer: The MIC90 was > 100 µM.

Question: What about the MIC90 [2, 5] of the same molecule?
Answer: The MIC90 was > 100 µM.

Question: What about the EC50 [1] of the same molecule?
Answer: Its EC50 is 0.5 to 5 µM.

Question: What about the IC50 (Cyp3A4; [6]) of the same molecule?
Answer: Its IC50 is > 50 µM.

Question: What about the IC50 (Cyp3A4; [3]) of the same molecule?
Answer: Its IC50 is > 50 µM.

Question: How did the MIC90 [2, 4] turn out when `CCC(C)n1ncn(-c2ccc(N3CCN(c4ccc(OC[C@@H]5CO[C@@](Cn6nccn6)(c6ccc(Cl)cc6Cl)O5)c(F)c4)CC3)cc2)c1=O` (stereo partly shown) [Compound 49] was run?
Answer: Its MIC90 is > 100 µM.

Question: And the MIC90 [2, 5]?
Answer: The MIC90 was > 100 µM.

Question: And the EC50 [1]?
Answer: Its EC50 is 0.5 to 5 µM.

Question: And the IC50 (Cyp3A4; [6])?
Answer: The IC50 was > 50 µM.

Question: What about the IC50 (Cyp3A4; [3]) of the same molecule?
Answer: Its IC50 is > 50 µM.

Question: For `CCC(C)n1ncn(-c2ccc(N3CCN(c4ccc(OC[C@@H]5CO[C@@](Cn6cncn6)(c6ccc(F)cc6F)O5)cc4)CC3)cc2)c1=O` (stereo partly shown) [Compound 6], which EC50 [1] is on record?
Answer: The EC50 was 0.5 to 5 µM.

Question: How did the EC50 [1] turn out when `CCC(C)n1ncn(-c2ccc(N3CCN(c4ccc(OC[C@@H]5CO[C@@](Cn6nc(Br)nc6Br)(c6ccc(F)cc6F)O5)cc4)CC3)cc2)c1=O` (stereo partly shown) [Compound 11] was run?
Answer: Its EC50 is 5 to 30 µM.

Question: `CCC(C)n1ncn(-c2ccc(N3CCN(c4ccc(OC[C@@H]5CO[C@@](Cc6ccncc6)(c6ccc(Cl)cc6Cl)O5)cc4)CC3)cc2)c1=O` (stereo partly shown) [Compound 23] was tested. Which MIC90 [2, 4] did it give?
Answer: The MIC90 was > 100 µM.

Question: And the MIC90 [2, 5]?
Answer: Its MIC90 is > 100 µM.

Question: What about the EC50 [1] of the same molecule?
Answer: Its EC50 is < 0.5 µM.

Question: And the IC50 (Cyp3A4; [6])?
Answer: Its IC50 is 0.321 µM.

Question: `CCC(C)n1ncn(-c2ccc(N3CCN(c4ccc(OC[C@@H]5CO[C@@](Cn6nccn6)(c6ccccn6)O5)cc4)CC3)cc2)c1=O` (stereo partly shown) [Compound 75] was tested. Which EC50 [1] did it give?
Answer: Its EC50 is 5 to 30 µM.

Question: For `CCC(C)n1cnn(-c2ccc(N3CCN(c4ccc(OC[C@@H]5CO[C@@](Cn6cnc(C)n6)(c6ccc(F)cc6F)O5)cc4)CC3)cc2)c1=O` (stereo partly shown) [Compound 5], which EC50 [1] is on record?
Answer: The EC50 was 5 to 30 µM.

Question: Which MIC90 [2, 4] does the source give for `CCC(C)n1ncn(-c2ccc(N3CCN(c4ccc(OC[C@@H]5CO[C@@](Cn6nccn6)(c6ccccc6Cl)O5)cc4)CC3)cc2)c1=O` (stereo partly shown) [Compound 32] here?
Answer: The MIC90 was > 100 µM.

Question: And the MIC90 [2, 5]?
Answer: The MIC90 was > 100 µM.

Question: And the EC50 [1]?
Answer: Its EC50 is 5 to 30 µM.

Question: What about the IC50 (Cyp3A4; [6]) of the same molecule?
Answer: The IC50 was > 50 µM.

Question: And the IC50 (Cyp3A4; [3])?
Answer: Its IC50 is > 50 µM.

From US9981956B2, “Small molecule inhibitors of fibrosis” (THE CALIFORNIA INSTITUTE FOR BIOMEDICAL RESEARCH, priority 2013, dated 2018)
